According to ChEMBL document CHEMBL1152696, “Interaction study of bioactive molecules with fibrinogen and human platelets determined by 1H NMR relaxation experiments” (Bioorg Med Chem, 2009):

Key:
[1] = Binding interaction with fibrinogen assessed as spin lattice relaxation rate enumerated as normalized affinity index at given concentration and fixed temperature by NMR relaxation experiment
Platelet = experiment: Binding interaction with platelet assessed as spin lattice relaxation rate enumerated as normalized affinity index at given concentration and fixed temperature by NMR relaxation experiment; type: cell-based

CC(C)NCC(O)c1ccc(O)c(O)c1 (centres undefined)
[A]T,L [1]: 9730 /mol.dm'3 | [A]T,L (10'-8 /no of units.cm'3) (Platelet): 4.47

CNC[C@H](O)c1ccc(O)c(O)c1
[A]T,L [1]: 26900 /mol.dm'3 | [A]T,L (10'-8 /no of units.cm'3) (Platelet): 4.66
